We go through one molecule from PMC9030138, “The Facile Preparation of PBA-GO-CuO-Modified Electrochemical Biosensor Used for the Measurement of α-Amylase Inhibitors’ Activity” (Molecules, 2022).

As usually defined, the IC50 is the midpoint of a concentration-inhibition curve.

This assay addresses T1, α-amylase (Sus scrofa, UniProt P00690).
T1 construct: gene AMY2; from porcine pancreas, type VI-B
T1 sequence (P00690 16-511): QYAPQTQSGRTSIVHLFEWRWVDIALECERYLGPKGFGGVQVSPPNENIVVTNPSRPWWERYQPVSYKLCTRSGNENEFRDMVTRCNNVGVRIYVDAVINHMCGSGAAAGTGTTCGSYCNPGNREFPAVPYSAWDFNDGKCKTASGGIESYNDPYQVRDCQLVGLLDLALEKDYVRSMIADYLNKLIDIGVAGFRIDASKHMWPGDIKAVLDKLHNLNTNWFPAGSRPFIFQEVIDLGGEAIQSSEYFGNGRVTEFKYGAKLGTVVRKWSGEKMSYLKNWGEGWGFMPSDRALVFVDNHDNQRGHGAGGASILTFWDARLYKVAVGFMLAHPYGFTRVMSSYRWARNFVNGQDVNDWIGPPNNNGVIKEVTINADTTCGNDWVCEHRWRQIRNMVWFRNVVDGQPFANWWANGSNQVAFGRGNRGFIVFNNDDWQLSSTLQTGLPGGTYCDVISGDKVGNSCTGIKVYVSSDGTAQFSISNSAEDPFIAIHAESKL
Put plainly: electrochemical glucose sensor (PBA-GO-CuO electrode) assay of starch hydrolysis; checked by iodine colorimetric assay. Format: biochemical.

As to `O=C(O)c1cc(O)c2c(c1)C(=O)c1cccc(O[C@@H]3O[C@H](CO)[C@@H](O)[C@H](O)[C@H]3O)c1C2=O` [Rhein-8-b-D-glucopyranoside], the IC50 came out at 39.1 µM.
